# In BindingDB's records for doi:10.1074/jbc.M110.107094 (Sanford-Burnham Medical Research Institute, 2010):
# Key:
# Test in all cases: Inhibition Assay
# Details in all cases: 37 °C
# [1] = target: T1, Matrix metalloproteinase-14 [1-20,P8S] (Homo sapiens, UniProt P50281, P8S)
# T1 construct: 1-20
# Excerpt: (§1) Inhibition of IC50 using matrix metalloproteinase.
# [2] = target: Matrix metalloproteinase-9 (Homo sapiens, UniProt P14780)
# Excerpt: as §1
# [3] = target: 72 kDa type IV collagenase (Homo sapiens, UniProt P08253)
# Excerpt: as §1
# [4] = target: T2, Matrix metalloproteinase-25 (Homo sapiens, UniProt Q9NPA2)
# T2 sequence (Q9NPA2 whole entry): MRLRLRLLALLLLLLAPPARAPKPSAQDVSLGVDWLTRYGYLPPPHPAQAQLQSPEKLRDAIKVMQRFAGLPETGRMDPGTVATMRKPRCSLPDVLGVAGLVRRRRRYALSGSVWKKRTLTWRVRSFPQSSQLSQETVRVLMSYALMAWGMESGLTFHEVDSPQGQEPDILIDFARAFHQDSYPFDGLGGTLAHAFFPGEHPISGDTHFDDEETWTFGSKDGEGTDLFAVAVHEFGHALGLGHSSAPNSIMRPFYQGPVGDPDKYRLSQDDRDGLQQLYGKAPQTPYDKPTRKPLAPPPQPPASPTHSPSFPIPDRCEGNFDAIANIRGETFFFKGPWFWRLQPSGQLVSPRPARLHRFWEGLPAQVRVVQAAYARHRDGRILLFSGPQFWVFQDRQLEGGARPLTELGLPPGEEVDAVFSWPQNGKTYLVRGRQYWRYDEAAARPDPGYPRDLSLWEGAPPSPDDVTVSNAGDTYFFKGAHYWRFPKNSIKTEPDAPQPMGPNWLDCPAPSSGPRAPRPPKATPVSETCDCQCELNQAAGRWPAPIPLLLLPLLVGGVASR
# Excerpt: as §1
# Matrix metalloproteinase-9, sequence (P14780 whole entry): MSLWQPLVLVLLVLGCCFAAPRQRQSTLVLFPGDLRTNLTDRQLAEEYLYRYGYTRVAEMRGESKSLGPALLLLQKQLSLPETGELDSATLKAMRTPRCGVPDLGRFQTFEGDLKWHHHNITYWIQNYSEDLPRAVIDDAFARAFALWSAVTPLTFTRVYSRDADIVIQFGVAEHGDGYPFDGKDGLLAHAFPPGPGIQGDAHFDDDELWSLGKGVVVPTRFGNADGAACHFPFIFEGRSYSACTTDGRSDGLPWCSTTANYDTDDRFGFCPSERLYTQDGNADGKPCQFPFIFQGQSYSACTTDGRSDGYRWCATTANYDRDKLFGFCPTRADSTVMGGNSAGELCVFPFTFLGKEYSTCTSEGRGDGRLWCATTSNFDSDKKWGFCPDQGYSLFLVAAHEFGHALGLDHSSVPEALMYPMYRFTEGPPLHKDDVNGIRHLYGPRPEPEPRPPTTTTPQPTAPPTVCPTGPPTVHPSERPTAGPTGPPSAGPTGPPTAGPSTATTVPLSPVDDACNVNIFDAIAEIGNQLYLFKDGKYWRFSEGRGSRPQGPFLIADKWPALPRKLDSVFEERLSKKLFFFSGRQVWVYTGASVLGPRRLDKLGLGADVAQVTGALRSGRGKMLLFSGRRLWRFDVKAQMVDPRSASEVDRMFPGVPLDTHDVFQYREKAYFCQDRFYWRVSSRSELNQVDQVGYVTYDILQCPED
# 72 kDa type IV collagenase, sequence (P08253 whole entry): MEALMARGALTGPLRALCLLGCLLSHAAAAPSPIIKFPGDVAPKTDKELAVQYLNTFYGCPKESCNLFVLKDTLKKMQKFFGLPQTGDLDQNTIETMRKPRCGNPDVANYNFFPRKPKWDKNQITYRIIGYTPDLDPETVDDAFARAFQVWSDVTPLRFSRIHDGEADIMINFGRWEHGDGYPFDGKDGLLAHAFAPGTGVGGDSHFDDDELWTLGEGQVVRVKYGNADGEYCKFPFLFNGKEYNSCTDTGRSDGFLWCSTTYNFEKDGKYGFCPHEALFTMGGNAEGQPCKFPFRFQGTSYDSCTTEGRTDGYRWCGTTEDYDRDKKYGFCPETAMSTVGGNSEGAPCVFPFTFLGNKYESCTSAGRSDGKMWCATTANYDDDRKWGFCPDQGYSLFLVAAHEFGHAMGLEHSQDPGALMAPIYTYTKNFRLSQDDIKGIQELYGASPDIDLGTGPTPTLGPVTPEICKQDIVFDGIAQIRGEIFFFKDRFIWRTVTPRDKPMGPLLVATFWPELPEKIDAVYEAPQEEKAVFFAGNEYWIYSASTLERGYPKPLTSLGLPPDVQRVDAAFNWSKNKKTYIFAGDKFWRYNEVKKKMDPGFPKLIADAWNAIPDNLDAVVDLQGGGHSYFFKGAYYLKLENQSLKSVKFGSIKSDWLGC
IC50 [1] [µM],IC50 [2] [µM],IC50 [3] [nM],IC50 [4] [nM],SMILES
10.9,> 50,1900,900,O=C(CCS(=O)(=O)c1ccccc1)NO [BI-92G11]
> 100,> 100,> 100000,2500,CCOc1ccc(-c2ccccc2C(=O)NO)cc1 [BI-102C8]
